Patent US12091411B2, “IRAK degraders and uses thereof” (Kymera Therapeutics, Inc., priority 2022, dated 2024)
Read-outs that look alike come from different tables or passages of the source.

Target: T1, IRAK4 (Homo sapiens, UniProt Q9NWZ3)
T1 construct: Degradation of IRAK4 in OCI-LY10 was quantitatively measured using Meso Scale Discovery technology; endogenous in cells; host or cells: OCI-LY10
T1 sequence (Q9NWZ3 1-460): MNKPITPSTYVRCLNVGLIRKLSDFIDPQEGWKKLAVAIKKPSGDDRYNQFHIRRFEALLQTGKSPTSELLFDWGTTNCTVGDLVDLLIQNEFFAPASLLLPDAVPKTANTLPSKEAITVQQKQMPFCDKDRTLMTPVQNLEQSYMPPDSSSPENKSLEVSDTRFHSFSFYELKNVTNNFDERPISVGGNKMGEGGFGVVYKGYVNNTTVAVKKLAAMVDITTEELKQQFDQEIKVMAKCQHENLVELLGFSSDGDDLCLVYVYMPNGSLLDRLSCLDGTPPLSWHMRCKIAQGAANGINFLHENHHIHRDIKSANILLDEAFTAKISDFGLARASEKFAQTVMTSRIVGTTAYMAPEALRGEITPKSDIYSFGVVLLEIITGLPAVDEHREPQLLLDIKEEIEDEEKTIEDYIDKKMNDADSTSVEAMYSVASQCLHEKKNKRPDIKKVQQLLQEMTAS
Assay: IRAK4 MSD Degradation in OCI-LY10
Format: cell-based
Conditions: OCI-LY10 cells, MSD
In short: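 DC50, from a three-parameter logistic fit and reported as letter bins A (<0.01 μM), B, C, D (>0.2 μM or not tested), reflects IRAK4 loss measured by MSD electrochemiluminescence in OCI-LY10 lysates. Treatment: 8 doses, 1:3 steps, top 1 to 10 μM, 4 to 24 h, 37 °C.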

[1] = 4 hrs incubation, read-out: IRAK4 degradation in OCI-LY10 at 4 hrs: DC50
[2] = 24 hrs incubation, read-out: IRAK4 degradation in OCI-LY10 at 24 hrs: DC50

Row | SMILES | DC50 [1] [nM] | DC50 [2] [nM]
1 | Cn1c(=O)n(C2CCC(=O)NC2=O)c2cccc(C#CCOC3CCN(C[C@H]4CC[C@H](c5nc(C(F)F)c(NC(=O)c6cnn7ccc(N8C[C@H]9C[C@@H]8CO9)nc67)s5)CC4)CC3)c21 (stereo partly drawn) [I-205] | > 200 | > 200
2 | Cn1c(=O)n(C2CCC(=O)NC2=O)c2cccc(C#CCOC3CCN(C[C@H]4CC[C@H](c5nc(C(F)F)c(NC(=O)c6cnn7ccc(N8C[C@H]9C[C@@H]8CO9)nc67)o5)CC4)CC3)c21 (stereo partly drawn) [I-206] | > 200 | > 200
3 | Cn1c(=O)n(C2CCC(=O)NC2=O)c2cccc(C#CCOC3CCN(CC4CCN(c5nc(C(F)F)c(NC(=O)c6cnn7ccc(N8C[C@H]9C[C@@H]8CO9)nc67)s5)CC4)CC3)c21 (stereo partly drawn) [I-207] | > 200 | > 200
4 | Cn1c(=O)n(C2CCC(=O)NC2=O)c2cccc(C#CCOC3CCN(CC4CCN(c5nc(C(F)F)c(NC(=O)c6cnn7ccc(N8C[C@H]9C[C@@H]8CO9)nc67)o5)CC4)CC3)c21 (stereo partly drawn) [I-208] | > 200 | > 200
5 | O=C1CCN(c2cccc(C#CCOC3CCN(C[C@H]4CC[C@H](n5cc(NC(=O)c6cnn7ccc(N8C[C@H]9C[C@@H]8CO9)nc67)c(C(F)F)n5)CC4)CC3)c2)C(=O)N1 [I-209] | > 200 | > 200
6 | Cn1c(=O)n(C2CCC(=O)NC2=O)c2cccc(C#CCOC3CCN(C[C@H]4CC[C@H](n5cc(NC(=O)c6cccc(C(F)(F)F)n6)c(C(F)F)n5)CC4)CC3)c21 (stereo partly drawn) [I-210] | > 200 | > 200
7 | Cn1c(=O)n(C2CCC(=O)NC2=O)c2cccc(C#CCN3CCN(C[C@H]4CC[C@H](n5cc(NC(=O)c6cccc(C(F)(F)F)n6)c(C(F)F)n5)CC4)CC3)c21 (stereo partly drawn) [I-211] | > 200 | > 200
8 | Cn1c(=O)n(C2CCC(=O)NC2=O)c2cccc(CCCOC3CCN(C[C@H]4CC[C@H](n5cc(NC(=O)c6cccc(C(F)(F)F)n6)c(C(F)F)n5)CC4)CC3)c21 (stereo partly drawn) [I-212] | > 200 | > 200
9 | Cn1c(=O)n(C2CCC(=O)NC2=O)c2cccc(CCCN3CCN(C[C@H]4CC[C@H](n5cc(NC(=O)c6cccc(C(F)(F)F)n6)c(C(F)F)n5)CC4)CC3)c21 (stereo partly drawn) [I-213] | > 200 | > 200
10 | COc1nn([C@H]2CC[C@H](CN3CC4CC3CN4c3cccc4c3n(C)c(=O)n4C3CCC(=O)NC3=O)CC2)cc1NC(=O)c1cnn2cc(N(C)C)cnc12 (stereo partly drawn) [I-214] | > 200 | > 200
11 | CN(C)c1cnc2c(C(=O)Nc3cn([C@H]4CC[C@H](CN5CCN(c6cccc7c6n(C)c(=O)n7C6CCC(=O)NC6=O)CC5)CC4)nc3F)cnn2c1 (stereo partly drawn) [I-215] | > 200 | > 200
12 | Cc1nn([C@H]2CC[C@H](CN3CCN(c4cccc5c4n(C)c(=O)n5C4CCC(=O)NC4=O)CC3)CC2)cc1NC(=O)c1cnn2cc(N(C)C)cnc12 (stereo partly drawn) [I-216] | > 200 | > 200
13 | Cc1nn([C@H]2CC[C@H](CN3CCN(c4ccc5c(c4)n(C)c(=O)n5C4CCC(=O)NC4=O)CC3)CC2)cc1NC(=O)c1cnn2cc(N(C)C)cnc12 (stereo partly drawn) [I-217] | > 200 | > 200
14 | O=C1CCN(c2ccc(C#CCOC3CCN(C[C@H]4CC[C@H](n5cc(NC(=O)c6cnn7ccc(N8C[C@H]9C[C@@H]8CO9)nc67)c(C(F)F)n5)CC4)CC3)cc2)C(=O)N1 [I-218] | 100 to 200 | > 200
15 | Cn1c(=O)n(C2CCC(=O)NC2=O)c2cccc(C#CCN3CCN(C[C@H]4CC[C@H](n5cc(NC(=O)c6cnn7ccc(C(C)(C)C)nc67)c(C(F)F)n5)CC4)CC3)c21 (stereo partly drawn) [I-219] | > 200 | > 200
16 | COC(C)(C)c1ccn2ncc(C(=O)Nc3cn([C@H]4CC[C@H](CN5CCN(CC#Cc6cccc7c6n(C)c(=O)n7C6CCC(=O)NC6=O)CC5)CC4)nc3C(F)F)c2n1 (stereo partly drawn) [I-220] | > 200 | > 200
17 | Cn1c(=O)n(C2CCC(=O)NC2=O)c2cccc(C#CCN3CCN(C[C@H]4CC[C@H](n5cc(NC(=O)c6cnn7ccc(N8CCCC8(C)C)nc67)c(C(F)F)n5)CC4)CC3)c21 (stereo partly drawn) [I-221] | > 200 | 10 to 100
18 | Cn1c(=O)n(C2CCC(=O)NC2=O)c2cccc(C#CCN3CCN(C[C@H]4CC[C@H](n5cc(NC(=O)c6cnn7ccc(N8CCC(C)(C)C8)nc67)c(C(F)F)n5)CC4)CC3)c21 (stereo partly drawn) [I-223] | > 200 | 10 to 100
19 | Cn1c(=O)n(C2CCC(=O)NC2=O)c2cccc(C#CCN3CCN(C[C@H]4CC[C@H](n5cc(NC(=O)c6cnn7ccc(N8CC(C)(C)C8)nc67)c(C(F)F)n5)CC4)CC3)c21 (stereo partly drawn) [I-225] | > 200 | < 10
20 | Cn1c(=O)n(C2CCC(=O)NC2=O)c2cccc(C#CCN3CCN(C[C@H]4CC[C@H](n5cc(NC(=O)c6cnn7ccc(N8CCCC(C)(C)C8)nc67)c(C(F)F)n5)CC4)CC3)c21 (stereo partly drawn) [I-229] | > 200 | 10 to 100
21 | Cn1c(=O)n(C2CCC(=O)NC2=O)c2cccc(C#CCN3CCN(C[C@H]4CC[C@H](n5cc(NC(=O)c6cnn7ccc(N8CCCCC8(C)C)nc67)c(C(F)F)n5)CC4)CC3)c21 (stereo partly drawn) [I-230] | > 200 | 10 to 100
22 | Cn1c(=O)n(C2CCC(=O)NC2=O)c2cccc(C#CCOC3CCN(C[C@H]4CC[C@H](n5cc(NC(=O)c6ccn7ccc(N8C[C@H]9C[C@@H]8CO9)nc67)c(C(F)F)n5)CC4)CC3)c21 (stereo partly drawn) [I-231] | > 200 | > 200
23 | Cn1c(=O)n(C2CCC(=O)NC2=O)c2cccc(C#CCOC3CCN(C[C@H]4CC[C@H](n5cc(NC(=O)c6ccn7ccc(N8C[C@@H]9C[C@H]8CO9)nc67)c(C(F)F)n5)CC4)CC3)c21 (stereo partly drawn) [I-232] | > 200 | > 200
24 | Cn1c(=O)n(C2CCC(=O)NC2=O)c2cccc(C#CCN3CCN(C[C@H]4CC[C@H](n5cc(NC(=O)c6cnn7cc(N8CCCCC8)cnc67)c(C(F)F)n5)CC4)CC3)c21 (stereo partly drawn) [I-233] | > 200 | > 200
25 | CN(C)c1cnc2c(C(=O)Nc3cn([C@H]4CC[C@H](CN5CCN(CC#Cc6cccc7c6n(C)c(=O)n7C6CCC(=O)NC6=O)CC5)CC4)nc3C(F)F)cnn2c1 (stereo partly drawn) [I-234] | > 200 | 100 to 200
26 | CC(C)Oc1ccn2ncc(C(=O)Nc3cn([C@H]4CC[C@H](CN5CCN(CC#Cc6cccc7c6n(C)c(=O)n7C6CCC(=O)NC6=O)CC5)CC4)nc3C(F)F)c2n1 (stereo partly drawn) [I-243] | > 200 | > 200

The remaining lines, values ahead:

Row | DC50 [1] [nM] | DC50 [2] [nM] | SMILES
27 | > 200 | 10 to 100 | Cn1c(=O)n(C2CCC(=O)NC2=O)c2cccc(C#CCN3CCN(C[C@H]4CC[C@H](n5cc(NC(=O)c6cnn7ccc(N8CCCC89CC9)nc67)c(C(F)F)n5)CC4)CC3)c21 (stereo partly drawn) [I-222]
28 | > 200 | 10 to 100 | Cn1c(=O)n(C2CCC(=O)NC2=O)c2cccc(C#CCN3CCN(C[C@H]4CC[C@H](n5cc(NC(=O)c6cnn7ccc(N8CCC9(CC9)C8)nc67)c(C(F)F)n5)CC4)CC3)c21 (stereo partly drawn) [I-224]
29 | > 200 | < 10 | Cn1c(=O)n(C2CCC(=O)NC2=O)c2cccc(C#CCN3CCN(C[C@H]4CC[C@H](n5cc(NC(=O)c6cnn7ccc(N8CC9(CC9)C8)nc67)c(C(F)F)n5)CC4)CC3)c21 (stereo partly drawn) [I-226]
30 | > 200 | 10 to 100 | Cn1c(=O)n(C2CCC(=O)NC2=O)c2cccc(C#CCN3CCN(C[C@H]4CC[C@H](n5cc(NC(=O)c6cnn7ccc(N8CCC(C)(C)CC8)nc67)c(C(F)F)n5)CC4)CC3)c21 (stereo partly drawn) [I-227]
31 | > 200 | < 10 | Cn1c(=O)n(C2CCC(=O)NC2=O)c2cccc(C#CCN3CCN(C[C@H]4CC[C@H](n5cc(NC(=O)c6cnn7ccc(N8CCC9(CC8)CC9)nc67)c(C(F)F)n5)CC4)CC3)c21 (stereo partly drawn) [I-228]
32 | > 200 | 10 to 100 | Cn1c(=O)n(C2CCC(=O)NC2=O)c2cccc(C#CCN3CCN(C[C@H]4CC[C@H](n5cc(NC(=O)c6cnn7cccnc67)c(C(F)F)n5)CC4)CC3)c21 (stereo partly drawn) [I-235]
33 | > 200 | < 10 | Cn1c(=O)n(C2CCC(=O)NC2=O)c2cccc(N3CCC4(CCN(C[C@H]5CC[C@H](n6cc(NC(=O)c7cnn8cccnc78)c(C(F)F)n6)CC5)CC4)CC3)c21 (stereo partly drawn) [I-236]
34 | > 200 | 10 to 100 | Cn1c(=O)n(C2CCC(=O)NC2=O)c2cccc(N3CCN(CC[C@H]4CC[C@H](n5cc(NC(=O)c6cnn7cccnc67)c(C(F)F)n5)CC4)CC3)c21 (stereo partly drawn) [I-237]
35 | > 200 | > 200 | Cn1c(=O)n(C2CCC(=O)NC2=O)c2cccc(CN3CCN(C[C@H]4CC[C@H](n5cc(NC(=O)c6cnn7cccnc67)c(C(F)F)n5)CC4)CC3)c21 (stereo partly drawn) [I-238]
36 | > 200 | > 200 | Cn1c(=O)n(C2CCC(=O)NC2=O)c2cccc(N3CCC(CO[C@H]4CC[C@H](n5cc(NC(=O)c6cnn7cccnc67)c(C(F)F)n5)CC4)CC3)c21 (stereo partly drawn) [I-239]
37 | > 200 | > 200 | Cn1c(=O)n(C2CCC(=O)NC2=O)c2cccc(N3CCC(OC[C@H]4CC[C@H](n5cc(NC(=O)c6cnn7cccnc67)c(C(F)F)n5)CC4)CC3)c21 (stereo partly drawn) [I-240]
38 | > 200 | 100 to 200 | C[C@@H]([C@H]1CC[C@H](n2cc(NC(=O)c3cnn4cccnc34)c(C(F)F)n2)CC1)N(C)C1CCN(c2cccc3c2n(C)c(=O)n3C2CCC(=O)NC2=O)CC1 (stereo partly drawn) [I-241]
39 | > 200 | > 200 | CN(C1CCN(c2cccc3c2n(C)c(=O)n3C2CCC(=O)NC2=O)CC1)[C@@H](C#N)[C@H]1CC[C@H](n2cc(NC(=O)c3cnn4cccnc34)c(C(F)F)n2)CC1 (stereo partly drawn) [I-242]
